Laboratory results published in PubChem BioAssay AID1896 (NMMLSC, 2009).
Activity calls are given as the source filed them. No rule for the calls is given here.

target: Mitogen-activated protein kinase kinase kinase 3 (Homo sapiens) (UniProt Q99759); assay: MEKK3 PB1-MEK5 interaction blockers – biochemical, bead multiplex flow cytometry, wildtype, dose response (AID 1896); settings: bead-based multiplex flow cytometry, MEK5-MEKK3 PB1 binding
Sequence (Q99759 whole entry, looked up): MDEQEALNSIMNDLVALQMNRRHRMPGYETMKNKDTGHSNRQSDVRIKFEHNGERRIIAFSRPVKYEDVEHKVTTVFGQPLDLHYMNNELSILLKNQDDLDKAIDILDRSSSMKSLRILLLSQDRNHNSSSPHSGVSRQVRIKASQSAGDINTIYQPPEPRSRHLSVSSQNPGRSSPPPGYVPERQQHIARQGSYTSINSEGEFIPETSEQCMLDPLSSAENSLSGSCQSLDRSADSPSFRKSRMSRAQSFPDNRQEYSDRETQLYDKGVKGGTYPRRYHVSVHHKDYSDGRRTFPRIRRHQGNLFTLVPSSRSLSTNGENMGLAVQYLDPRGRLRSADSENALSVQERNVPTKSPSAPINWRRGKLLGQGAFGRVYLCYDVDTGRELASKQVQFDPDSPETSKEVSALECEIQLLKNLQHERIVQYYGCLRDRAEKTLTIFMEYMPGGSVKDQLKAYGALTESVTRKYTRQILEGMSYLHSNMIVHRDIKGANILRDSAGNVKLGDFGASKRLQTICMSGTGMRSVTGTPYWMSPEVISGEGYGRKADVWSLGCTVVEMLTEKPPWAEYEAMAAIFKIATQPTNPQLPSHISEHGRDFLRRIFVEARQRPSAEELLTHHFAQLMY

EC50, inactive:
CN1C(=CC=C2C=C(I)C(=O)C(I)=C2)C(C)(C)c2ccccc21 > 30 µM, CCCCCCCCCCOC(=O)Cn1c(COc2cccc(OC)c2)[n+](C)c2ccccc21 > 30 µM, CCCSc1ncnc2sc(C)c(C)c12 > 30 µM, C#CCOCCOCCOCCNc1nc(N2CCN(C(=O)C(Cc3ccc(O)cc3)n3cc(C(N)CC(C)C)nn3)CC2)nc(N2CCN(C(=O)C(Cc3cc4ccccc4[nH]3)n3cc(C(N)Cc4ccc(O)cc4)nn3)CC2)n1 (stereo not drawn) > 30 µM, CCCCCCCCCCOC(=O)Cn1c(COc2ccccc2)[n+](C)c2ccccc21 > 30 µM, CNC(=O)C(=O)Nc1c(C)cc(C)cc1C > 30 µM, CCOC(=O)C1=C(c2ccccc2)NC(N)=NC1c1ccc(OCc2ccc(Cl)cc2)c(OC)c1 (stereo not drawn) > 30 µM, C#CCOCCOCCOCCNc1nc(N2CCN(C(=O)C(Cc3cc4ccccc4[nH]3)n3cc(C(N)C(C)CC)nn3)CC2)nc(N2CCN(C(=O)C(Cc3cc4ccccc4[nH]3)n3cc(C(N)C(C)CC)nn3)CC2)n1 (stereo not drawn) > 30 µM, COc1ccc(NC(=O)N(Cc2cc3cc(C)ccc3[nH]c2=O)CC2CCCO2)cc1 (stereo not drawn) > 30 µM, O=C(NNc1c2ccccc2nc2ccccc12)c1cc2ccccc2cc1O > 30 µM, COC(=O)C1=C(C)N(Cc2ccccc2)C(=NCc2cccc(C(F)(F)F)c2)N[C@H]1c1cccc(F)c1 > 30 µM, CCOC(=O)c1c(C)n(-c2ccc(C)cc2)c2ccc(OCC(O)CN3CCN(C)CC3)cc12 (stereo not drawn) > 30 µM, CCOc1ccc(C2=C/C(=C/c3cccnc3)C(=O)O2)cc1 > 30 µM, Cc1sc(NC(=O)c2ccccc2)c(C(c2ccccn2)N2CCN(CCO)CC2)c1C (stereo not drawn) > 30 µM, CN1CCN(CC(=O)N2CCn3c4c(c5cc(C6CCCCC6)ccc53)CCCC42)CC1 (stereo not drawn) > 30 µM, C#CCOCCOCCOCCNc1nc(N2CCN(C(=O)[C@H](CCC(=O)O)n3cc(C(N)CO)nn3)CC2)nc(N2CCN(C(=O)[C@H](Cc3cc4ccccc4[nH]3)n3cc(C(N)[C@H](C)CC)nn3)CC2)n1 (stereo partly drawn) > 30 µM, CCOC(=O)C(C(=O)OCC)c1cc(Br)c2noc3c2c1C(=O)c1ccccc1-3 > 30 µM, C#CCOCCOCCOCCNc1nc(N2CCN(C(=O)[C@H]([C@@H](C)CC)n3cc([C@@H](N)CC(C)C)nn3)CC2)nc(N2CCN(C(=O)[C@H](Cc3cc4ccccc4[nH]3)n3cc([C@@H](N)Cc4ccc(O)cc4)nn3)CC2)n1 > 30 µM, COc1ccc(Cn2c(SCc3ccccc3C)nc3cc(OC)c(OC)cc3c2=N)cc1 > 30 µM, CCCCN(CC)CCNC(=O)c1cc2c(-c3ccc(Cl)cc3)nn(C)c2s1 > 30 µM, CCN1CCN(Cc2ccc(NC(=O)c3ccc(C)c(NC(=O)C(=O)c4c[nH]c5ccccc45)c3)cc2C(F)(F)F)CC1 > 30 µM, CN(C)c1ccc(NC(=O)CN2CCC(O)(c3ccccc3)CC2)cc1 > 30 µM, COc1ccc(-c2csc(N(CCCN(C)C)C(=O)c3ccccc3Cl)n2)cc1 > 30 µM, COC(=O)c1c(C)oc(C)c1S(=O)(=O)N(Cc1ccccc1)C(C)C > 30 µM, CCCCCCCCCCOC(=O)Cn1c(COc2ccc(OC)cc2)[n+](C)c2ccccc21 > 30 µM, OCCCCNCc1ccc(OCc2ccc(Cl)cc2Cl)cc1 > 30 µM, CCN1CCN(CCNC(=O)c2ccc(/C=C3/Sc4ccccc4N(Cc4cccc(Cl)c4)C3=O)cc2)CC1 > 30 µM, C=CC#CC[N+]1(CC#Cc2ccccc2)CCOCC1 > 30 µM, C#CCOCCOCCOCCNc1nc(N2CCN(C(=O)[C@H](Cc3ccc(O)cc3)n3cc([C@@H](N)CC(C)C)nn3)CC2)nc(N2CCN(C(=O)[C@H](Cc3cc4ccccc4[nH]3)n3cc([C@@H](N)CC(C)C)nn3)CC2)n1 > 30 µM, c1ccc(CNc2nc(NCc3ccccc3)c3ccccc3n2)cc1 > 30 µM, O=C1c2ccccc2-c2onc3ccc(NCc4ccco4)c1c23 > 30 µM, CC[C@@H](C)[C@H](CNC)NC[C@@H](Cc1cccc2ccccc12)NCCc1cccc(C(F)(F)F)c1 > 30 µM, CN(C)CCCNc1cc(C(C)(C)C)nc2c(-c3ccc(Cl)cc3)cnn12 > 30 µM, COc1cc(/C=N/NC(=O)c2cc3ccccc3cc2O)ccc1OCCN1CCCCC1 > 30 µM, O=C(Nc1ccc(Cl)cn1)c1ccc2c(Cl)c3c(nc2c1)CCC3 > 30 µM, O=C(CCCC(=O)N(CC(=O)NC1CCCC1)C1CCCC1)Nc1ccccn1 > 30 µM, CCC(/C=C1\Sc2ccc(OC)cc2N1CC)=C\c1sc2ccc(OC)cc2[n+]1CCCS(=O)(=O)[O-] > 30 µM, C#CCOCCOCCOCCNc1nc(N2CCN(C(=O)[C@H](Cc3cc4ccccc4[nH]3)n3cc([C@@H](N)C(C)CC)nn3)CC2)nc(N2CCN(C(=O)[C@H](CCCCN)n3cc([C@@H](N)CC(C)C)nn3)CC2)n1 (stereo partly drawn) > 30 µM, COc1ccc(/C=N/Nc2cc(C)nc3ccc(Br)cc23)cc1 > 30 µM, S=c1[nH]nc(-c2ccc(Cl)cc2)n1-c1ccc2c(c1)OCCO2 > 30 µM, Nc1ccc2nc(-c3ccc(-c4nc5ccc(N)cc5[nH]4)cc3)[nH]c2c1 > 30 µM, Cc1cc2ccccc2n1CCNC(=O)c1cccs1 > 30 µM, CCCCCCOc1ccc(/C(C)=N/NC2=NCCN2)cc1[N+](=O)[O-] > 30 µM, CN(C)CCCn1c(SCC(=O)Nc2nc(-c3cccc(Br)c3)cs2)nc2ccccc2c1=O > 30 µM, CC(=O)Nc1ccc(OCC(O)Cn2c3ccccc3c3ccccc32)cc1 (stereo not drawn) > 30 µM, CCOC(=O)C1=C(c2ccccc2)NC(N)=NC1c1ccc(OCc2ccc(C(=O)OC)cc2)cc1 (stereo not drawn) > 30 µM, CCCCCCCCCCOC(=O)Cn1c(COc2ccccc2C)[n+](C)c2ccccc21 > 30 µM, CCCCCCCCCCOC(=O)Cn1c(COc2ccc(C)cc2)[n+](C)c2ccccc21 > 30 µM

EC50, active:
CCN1/C(=C/C(C)=C/c2sc3ccccc3[n+]2CC)Sc2ccccc21 1.01 µM, Cc1nn2c(N)csc2nc1=O 4.14 µM, CCN(CC)CCOC(=O)c1ccc(N/C=C(/C#N)c2nc(-c3ccc(OC)c(OC)c3)cs2)cc1 2.52 µM, CCNc1ccc2noc3c2c1C(=O)c1ccccc1-3 4.55 µM, CCN1/C(=C/c2ccc3cc(C)ccc3[n+]2CC)Sc2cc(C)c(C)cc21 5.79 µM, O=C(Nc1ccc(C2=NCCN2)cc1)c1ccc(C(=O)Nc2ccc(C3=NCCN3)cc2)c([N+](=O)[O-])c1 11.9 µM, O=C1Nc2ccc(Br)cc2/C1=N/N=C/C1=C(N2CCOCC2)C(=C\c2ccccc2)/CC1 1.76 µM, Cc1cc2cc(CNC(=O)NC3CCCCC3)ccc2[nH]1 3.98 µM, Nc1cc2nc[nH]c2cc1N 7.87 µM, CN1CCN(c2ccc(NC(=O)c3ccc(-c4ccc(Cl)cc4)o3)cc2)CC1 2.68 µM

same assay, conditions: bead-based multiplex flow cytometry, MEK5-MEKK3 PB1 binding; measured here: Ki from EC50

Ki, 4.96 µM:
CCN1/C(=C/c2ccc3cc(C)ccc3[n+]2CC)Sc2cc(C)c(C)cc21

Ki, 6.73 µM:
Nc1cc2nc[nH]c2cc1N

Ki, 0.86 µM:
CCN1/C(=C/C(C)=C/c2sc3ccccc3[n+]2CC)Sc2ccccc21

Ki, 3.54 µM:
Cc1nn2c(N)csc2nc1=O

Ki, 3.41 µM:
Cc1cc2cc(CNC(=O)NC3CCCCC3)ccc2[nH]1

Ki, 1.5 µM:
O=C1Nc2ccc(Br)cc2/C1=N/N=C/C1=C(N2CCOCC2)C(=C\c2ccccc2)/CC1

Ki, 10.2 µM:
O=C(Nc1ccc(C2=NCCN2)cc1)c1ccc(C(=O)Nc2ccc(C3=NCCN3)cc2)c([N+](=O)[O-])c1

Ki, 2.15 µM:
CCN(CC)CCOC(=O)c1ccc(N/C=C(/C#N)c2nc(-c3ccc(OC)c(OC)c3)cs2)cc1

Ki, 2.29 µM:
CN1CCN(c2ccc(NC(=O)c3ccc(-c4ccc(Cl)cc4)o3)cc2)CC1

Ki, 3.89 µM:
CCNc1ccc2noc3c2c1C(=O)c1ccccc1-3
